How the values were obtained:
[1] = Rat AUC and percent bioavailability of compound I-1 after administration of potential prodrugs; parameters: species or system Rats; details: in vivo, parent, iv 1 mg/kg, read-out: Rat AUClast of compound I-1
[2] = DVS isotherm of spray-dried formulation and crystalline compound I-1; format: physicochemical; details: 25° C.; compared with the dispersion
Protocol: (§1) FIG. 1 is a dynamic vapor sorption (DVS) plot of percent change in mass versus target relative humidity (RH), illustrating the change in mass of one embodiment of the disclosed spray-dried formulation at 25° C. under various relative humidity conditions. The plot provides two isotherms: 1 is the sorption plot, illustrating the change in mass with increasing relative humidity steps; and 2 is the desorption plot, illustrating the change in mass with decreasing relative humidity steps.
as §1, with “FIG. 6” for “FIG. 1”, “a DVS” for “a dynamic vapor sorption (DVS)”, “relative humidity,” for “relative humidity (RH),”, “of a crystalline sample of compound I-1” for “of the disclosed spray-dried formulation”
FIGS. 1-10 provide structural and stability data concerning the spray-dried formulation (FIGS. 1-5) and a crystalline sample of compound I-1 (FIGS. 6-10). FIGS. 1 and 6 provide DVS isotherm plots for the spray-dried formulation and crystalline compound, respectively.

- AUC(0-t) [1]: 1050 ng·h/mL
- change in mass when exposed to higher relative humidity (DVS) [2]: substantially smaller change in mass
Compound: CCO[C@H]1CC[C@H](n2cc(NC(=O)c3csc(-c4cn[nH]c4)n3)c(-c3nc(F)ccc3F)n2)CC1 [Compound I-1, N-(3-(3,6-difluoropyridin-2-yl)-1-((1r, 4r)-4-ethoxycyclohexyl)-1H-pyrazol-4-yl)-2-(1H-pyrazol-4-yl)thiazole-4-carboxamide]

— patent US12357623B2, “Method for treating a disease or condition using a pyrazole compound or formulation thereof” (Rigel Pharmaceuticals, Inc., priority 2021, dated 2025)
